The values below come from article PMC9000427, “Synthesis and Anti-Trypanosoma cruzi Biological Evaluation of Novel 2-Nitropyrrole Derivatives” (Molecules, 2022).

Several values for one entry are separate records, joined by “and”; a condition that tells them apart may be missing. Equal entries are not always repeated.

Tested on in one data set: not given
Test: not given
Details: not given
In turn, `CC(C)NC(=O)Cn1cccc1[N+](=O)[O-]` [Compound 20, N-Isopropyl-2-(2-nitro-1H-pyrrol-1-yl)acetamide] had a melting point of 190 to 191 °C.
Same read-out and setting: with `O=C(Cn1cccc1[N+](=O)[O-])Nc1ccccc1` [Compound 4, 2-(2-Nitro-1H-pyrrol-1-yl)-N-phenylacetamide] the figure was 201 to 202 °C; with `O=C(Cn1cccc1[N+](=O)[O-])Nc1cc(F)ccc1Br` [Compound 22, N-(2-Bromo-5-fluorophenyl)-2-(2-nitro-1H-pyrrol-1-yl)acetamide], 185 to 186 °C; with `O=C(Cn1cccc1[N+](=O)[O-])NCc1cccc(C(F)(F)F)c1` [Compound 15, 2-(2-Nitro-1H-pyrrol-1-yl)-N-[3-(trifluoromethyl)benzyl]acetamide], 161 to 162 °C.
The same measure, in the same setting: the same measure for `O=C(Cn1cccc1[N+](=O)[O-])NCc1ccccc1` [Compound 3, N-Benzyl-2-(2-nitro-1H-pyrrol-1-yl)acetamide]: 174 to 175 °C.

A further data set deals with T. cruzi X10/7 intracellular amastigotes. The data set can be described thus: T. cruzi intracellular assay (infected Vero cells, high-content imaging). The data set is classed as cell-based, Trypanosoma cruzi. The note with it: 96h treatment; two independent replicates; normalised to DMSO (0%) and nifurtimox controls (100%). The procedure:
The infected Vero cells were then plated into 384-well plates containing the compounds to be tested, at 4000 cells per well in MEM media with 1% FCS. […] The plates were imaged on a Perkin Elmer Operetta high-content imaging system using a 20× objective. Images were analysed using the Columbus system (Perkin Elmer).
Regarding `O=C(Cn1cccc1[N+](=O)[O-])Nc1cccc(C(F)(F)F)c1` [Compound 18, 2-(2-Nitro-1H-pyrrol-1-yl)-N-[3-(trifluoromethyl)phenyl]acetamide], the “maximum effect (percent inhibition of intracellular amastigotes)” value was 71%.

Staying with this data set, now noted: Trypanosoma cruzi, Vero, 96 h, 96h treatment; two independent replicates; normalised to DMSO (0%) and nifurtimox controls (100%); read-out: maximum effect (percent inhibition of intracellular amastigotes).
For the compound `O=C(Cn1cccc1[N+](=O)[O-])Nc1cccc(C(F)(F)F)c1` [Compound 18, 2-(2-Nitro-1H-pyrrol-1-yl)-N-[3-(trifluoromethyl)phenyl]acetamide], the Emax was determined as 79%.

Staying with this data set, now noted: Trypanosoma cruzi, Vero, 96 h, intracellular T. cruzi strain X10/7-Silvio, 96h incubation; mean ± SD of two independent biological replicates; read-out: EC50 T. cruzi.
`O=C(Cn1cccc1[N+](=O)[O-])Nc1ccc(Br)cc1` [Compound 16, N-(4-Bromophenyl)-2-(2-nitro-1H-pyrrol-1-yl)acetamide]: the EC50 was less than 10 µM.
With `CC1CS(=O)(=O)CCN1/N=C/c1ccc([N+](=O)[O-])o1` (centres unmarked) [Nifurtimox, reference compound], the EC50 turned out to be 2.1 ± 0.2 µM.
Still for that read-out and setting: with `O=C(Cn1cccc1[N+](=O)[O-])Nc1ccccc1` [Compound 4, 2-(2-Nitro-1H-pyrrol-1-yl)-N-phenylacetamide] the figure was less than 10 µM.
Still for that read-out and setting: with `COc1cccc(NC(=O)Cn2cccc2[N+](=O)[O-])c1` [Compound 19, N-(3-Methoxyphenyl)-2-(2-nitro-1H-pyrrol-1-yl)acetamide] the figure was 50 µM.
Consider `O=C(Cn1cccc1[N+](=O)[O-])NCc1cccc(C(F)(F)F)c1` [Compound 15, 2-(2-Nitro-1H-pyrrol-1-yl)-N-[3-(trifluoromethyl)benzyl]acetamide], for which the EC50 was found to be 41 ± 12.7 µM.
Still for that read-out and setting: the same measure for `O=C(Cn1cccc1[N+](=O)[O-])NCc1ccccc1` [Compound 3, N-Benzyl-2-(2-nitro-1H-pyrrol-1-yl)acetamide]: 34.5 ± 21.9 µM; for `O=C(Cn1cccc1[N+](=O)[O-])Nc1ccccc1Cl` [Compound 17, N-(2-Chlorophenyl)-2-(2-nitro-1H-pyrrol-1-yl)acetamide]: 50 µM.

The same data set, now with this note: Trypanosoma cruzi, Vero, Replicate 1, dose response curve; read-out: pXC50 intracellular amastigotes (converted).
For `CC1CS(=O)(=O)CCN1/N=C/c1ccc([N+](=O)[O-])o1` (centres unmarked) [Nifurtimox, reference compound], the EC50 is 2.04 µM.
Still for that read-out and setting: the same measure for `O=C(Cn1cccc1[N+](=O)[O-])Nc1cccc(C(F)(F)F)c1` [Compound 18, 2-(2-Nitro-1H-pyrrol-1-yl)-N-[3-(trifluoromethyl)phenyl]acetamide]: 2.29 µM.

Still in this data set, the particulars now being: Trypanosoma cruzi, Vero, Replicate 2, dose response curve; read-out: pXC50 intracellular amastigotes (converted).
For the compound `CC1CS(=O)(=O)CCN1/N=C/c1ccc([N+](=O)[O-])o1` (centres unmarked) [Nifurtimox, reference compound], the EC50 is 2.04 µM.
Consider `O=C(Cn1cccc1[N+](=O)[O-])Nc1cccc(C(F)(F)F)c1` [Compound 18, 2-(2-Nitro-1H-pyrrol-1-yl)-N-[3-(trifluoromethyl)phenyl]acetamide], for which the EC50 is 4.9 µM.

The data set is the same for the next values; noted with them: intracellular T. cruzi strain X10/7-Silvio, 96h incubation; mean ± SD of two independent biological replicates; read-out: EC50 T. cruzi.
Consider `O=C(Cn1cccc1[N+](=O)[O-])Nc1ccc(Br)cc1` [Compound 16, N-(4-Bromophenyl)-2-(2-nitro-1H-pyrrol-1-yl)acetamide], for which the EC50 was 6.5 ± 0.6 µM.
The same measure, in the same setting: with `O=C(Cn1cccc1[N+](=O)[O-])Nc1ccccc1` [Compound 4, 2-(2-Nitro-1H-pyrrol-1-yl)-N-phenylacetamide] the figure was 6 µM.
On the same count and under the same terms, the same measure for `O=C(Cn1cccc1[N+](=O)[O-])Nc1cccc(C(F)(F)F)c1` [Compound 18, 2-(2-Nitro-1H-pyrrol-1-yl)-N-[3-(trifluoromethyl)phenyl]acetamide]: < 10 µM and 3.6 µM.

The test system of the next data set is Vero host cells. The data set can be described thus: Cytotoxicity against Vero host cells in the T. cruzi intracellular assay. The data set is classed as cell-based. Particulars: Chlorocebus sabaeus; Replicate 1, inhibition of Vero host cell growth; read-out: C_pXC50 host cells. The procedure:
(§1) These new derivatives were evaluated in vitro against the intracellular T. cruzi strain X10/7-Silvio by determining their 50% efficacy concentration (EC50) and were compared to the reference anti-T. cruzi drug nifurtimox. The in vitro 50% cytotoxic concentrations (CC50) were assessed on the CHO cell line and compared to a cytotoxic reference drug, doxorubicin. In vitro cytotoxicity against vero host cells was also assessed (vero cells EC50).
Vero cells (ECCAC 84113001) were screened for mycoplasma infection and maintained in MEM medium supplemented with Glutamax (Life Technologies) and 10% (v/v) foetal calf serum (FCS) at 37 °C in the presence of 5% CO2. T. cruzi parasites (Silvio X10/7 A1), a clonal line kindly provided by Susan Wyllie and Prof. Alan Fairlamb were maintained in Vero cells. On a weekly basis, emerged trypomastigotes were used to infect a new Vero monolayer at the multiplicity of infection (MOI) 1.5 [32].
For the primary intracellular assay, the infection conditions were chosen so that no trypomastigote egress occurs during the compound incubation time. First, Vero cells were infected overnight with tissue culture-derived T. cruzi trypomastigotes in T225 tissue culture flasks (MOI 5).
Next, any remaining free trypomastigotes were washed away with serum-free MEM, and the infected Vero cells were harvested by trypsinisation. The infected Vero cells were then plated into 384-well plates containing the compounds to be tested, at 4000 cells per well in MEM media with 1% FCS. After 96h incubation at 37 °C in the presence of 5% CO2, the plates were fixed with 4% formaldehyde for 20 min at room temperature and stained with 5μg/mL Hoechst 33342. The plates were imaged on a Perkin Elmer Operetta high-content imaging system using a 20× objective. Images were analysed using the Columbus system (Perkin Elmer). The algorithm for the primary assay first identified the Vero nuclei followed by the demarcation of the cytoplasm and identification of intracellular amastigotes. This algorithm reported the mean number of parasites per Vero cell and the total number of Vero cells. The data analysis was as previously described.
Regarding `CC1CS(=O)(=O)CCN1/N=C/c1ccc([N+](=O)[O-])o1` (centres unmarked) [Nifurtimox, reference compound], the EC50 was more than 15.8 µM.
The same measure, in the same setting: with `O=C(Cn1cccc1[N+](=O)[O-])Nc1cccc(C(F)(F)F)c1` [Compound 18, 2-(2-Nitro-1H-pyrrol-1-yl)-N-[3-(trifluoromethyl)phenyl]acetamide] the figure was more than 50.1 µM.

The data set is the same for the next values; noted with them: Chlorocebus sabaeus; Vero host cells, 96h incubation, concentrations up to 50 µM; read-out: Vero cells EC50.
On to `O=C(Cn1cccc1[N+](=O)[O-])Nc1ccc(Br)cc1` [Compound 16, N-(4-Bromophenyl)-2-(2-nitro-1H-pyrrol-1-yl)acetamide], for which the EC50 was found to be 14.5 ± 0.7 µM.
On the same count and under the same terms, with `O=C(Cn1cccc1[N+](=O)[O-])Nc1ccccc1` [Compound 4, 2-(2-Nitro-1H-pyrrol-1-yl)-N-phenylacetamide] the figure was 14 µM; with `O=C(Cn1cccc1[N+](=O)[O-])Nc1cccc(C(F)(F)F)c1` [Compound 18, 2-(2-Nitro-1H-pyrrol-1-yl)-N-[3-(trifluoromethyl)phenyl]acetamide], more than 50 µM.
On the same count and under the same terms, with `COc1cccc(NC(=O)Cn2cccc2[N+](=O)[O-])c1` [Compound 19, N-(3-Methoxyphenyl)-2-(2-nitro-1H-pyrrol-1-yl)acetamide] the figure was more than 50 µM.
On the same count and under the same terms, the same measure for `O=C(Cn1cccc1[N+](=O)[O-])NCc1cccc(C(F)(F)F)c1` [Compound 15, 2-(2-Nitro-1H-pyrrol-1-yl)-N-[3-(trifluoromethyl)benzyl]acetamide]: 43 ± 9.9 µM.
As for `O=C(Cn1cccc1[N+](=O)[O-])NCc1ccccc1` [Compound 3, N-Benzyl-2-(2-nitro-1H-pyrrol-1-yl)acetamide], the EC50 was found to be 42 ± 11.3 µM.
On the same count and under the same terms, the same measure for `O=C(Cn1cccc1[N+](=O)[O-])Nc1ccccc1Cl` [Compound 17, N-(2-Chlorophenyl)-2-(2-nitro-1H-pyrrol-1-yl)acetamide]: more than 50 µM.

Tested on in the next data set: not listed separately
The data set can be described thus: in vitro. The data set is classed as cell-based. The note with it: Chinese hamster, CC50 CHO. The protocol:
as §1
The toxicity of compounds towards Chinese hamster ovary cells (CHO-K1, ATCC CCL61) was evaluated by the NRU toxicity test, based on the concentration-dependent reduction of the uptake of the vital dye neutral red when measured 24 h after chemical treatment. Cells were grown in McCoy’s medium supplemented with Penicillin 100 IU/mL and streptomycin 100 μg/mL, and 10% of inactivated calf serum, and incubated at 37 °C in CO2 5% atmosphere. They were seeded into two 96-well tissue culture plates (0.1 mL per well), at a concentration of 1 × 10^5 cells/mL, and incubated at 37 °C (5% CO2) for 24 h, until confluent. The culture medium was decanted and replaced by 100 µL of fresh medium containing the appropriate concentrations of the compounds (eight different concentrations in triplicate), then cells were incubated at 37 °C (5% CO2) in the dark for 24 h. At the end of the incubation period, cells were washed, placed into neutral red medium (50 μg/mL neutral red in complete medium). This vital dye is a weak cationic dye that penetrates membranes of living cells by […] and accumulates intracellularly in lysosomes. On the contrary, alterations of the cell surface or metabolism result in a decreased uptake and binding of NR in non-viable cells. Cells were incubated for 3 h at 37°C, 5% CO2, and then the culture medium was removed, and cells were washed three times with 0.2 mL of PBS to remove excessive dye. Destaining solution (50% ethanol, 1% acetic acid, 49% distilled water; 50µL per well) was added into the wells, and the plates were shaken for 15–20 min at room temperature in the dark. The degree of cell viability was measured by a fluorescence–luminescence reader. The optical density (OD) of each well was read at 540 nm. The results obtained for wells treated with the test compounds were compared to those of untreated control wells (100% viability) and converted to percentage values. The mean OD value of blank wells (containing only neutral red desorbed solution) was subtracted from the mean OD value of three treated wells (dilutions of the test material, positive control or HBSS). The percentages of cell viability were calculated as:Viability (%) = (Mean OD of test wells-mean OD of blanks) × 100 / (Mean OD of negative control − mean OD of blanks)
The concentration of the test substances causing a 50% release of neutral red as compared to the control culture was calculated by non-linear regression analysis using software Phototox Version 2.0.
`O=C(Cn1cccc1[N+](=O)[O-])Nc1ccc(Br)cc1` [Compound 16, N-(4-Bromophenyl)-2-(2-nitro-1H-pyrrol-1-yl)acetamide]: it took 173 ± 4.6 µM to reach half-maximal cytotoxicity (CC50 at 24 h).
Regarding `CC(C)NC(=O)Cn1cccc1[N+](=O)[O-]` [Compound 20, N-Isopropyl-2-(2-nitro-1H-pyrrol-1-yl)acetamide], the CC50 at 24 h was determined as 321 ± 5.3 µM.
Still for that read-out and setting: with `O=C(Cn1cccc1[N+](=O)[O-])Nc1ccccc1` [Compound 4, 2-(2-Nitro-1H-pyrrol-1-yl)-N-phenylacetamide] the figure was 262 ± 3.9 µM; with `COc1cccc2c1C(=O)c1c(O)c3c(c(O)c1C2=O)C[C@@](O)(C(=O)CO)C[C@@H]3O[C@H]1C[C@H](N)[C@H](O)[C@H](C)O1` [Doxorubicin, reference compound], 4.6 ± 0.08 µM; with `O=C(Cn1cccc1[N+](=O)[O-])Nc1cc(F)ccc1Br` [Compound 22, N-(2-Bromo-5-fluorophenyl)-2-(2-nitro-1H-pyrrol-1-yl)acetamide], 188 ± 4.4 µM.
The same measure, in the same setting: the same measure for `O=C(Cn1cccc1[N+](=O)[O-])Nc1cccc(C(F)(F)F)c1` [Compound 18, 2-(2-Nitro-1H-pyrrol-1-yl)-N-[3-(trifluoromethyl)phenyl]acetamide]: 156 ± 2.9 µM.
On the same count and under the same terms, with `COc1cccc(NC(=O)Cn2cccc2[N+](=O)[O-])c1` [Compound 19, N-(3-Methoxyphenyl)-2-(2-nitro-1H-pyrrol-1-yl)acetamide] the figure was 260 ± 6.3 µM; with `O=C(Cn1cccc1[N+](=O)[O-])NCc1cccc(C(F)(F)F)c1` [Compound 15, 2-(2-Nitro-1H-pyrrol-1-yl)-N-[3-(trifluoromethyl)benzyl]acetamide], 185 ± 5.1 µM; with `O=C(Cn1cccc1[N+](=O)[O-])NCc1ccccc1` [Compound 3, N-Benzyl-2-(2-nitro-1H-pyrrol-1-yl)acetamide], 24.3 µM.
Regarding `O=C(Cn1cccc1[N+](=O)[O-])Nc1ccccc1Cl` [Compound 17, N-(2-Chlorophenyl)-2-(2-nitro-1H-pyrrol-1-yl)acetamide], the CC50 at 24 h was 198 ± 5.7 µM.
In turn, `O=C(Cn1cccc1[N+](=O)[O-])NC1CCCC1` [Compound 21, N-Cyclopentyl-2-(2-nitro-1H-pyrrol-1-yl)acetamide] gave a cytotoxic concentration (CC50) at 24 h of 303 ± 6.1 µM.
